Measured values from patent US20140243396A1, “METHOD OF TREATING MUCOEPIDERMOID CARCINOMA” (DANA-FARBER CANCER INSTITUTE, INC., priority 2011, published 2014).

Experiments:
[1] = in vivo; cited from earlier work
[2] = a few small 2003 studies; cited from earlier work
HSY cells = assay: cAMP measurement, enzyme immunoassay; assay type: cell-based; conditions: inhibitors
Source text: (§1) FIG. 5 illustrates inhibition of PDE4B increased cellular cAMP levels and inhibited PI3-kinase signaling. […] Columns: mean, bars: SD (n=3). B. Knock-down of PDE4B increased MEC cell cAMP level. n=3. **p<0.01, compared to control cells. Columns: mean, bars: SD (n=3). C. […] The same blot was stripped and probed with AKT or β-actin antibody. Image was cropped and auto-leveled by Photoshop. A representative of three independent experiments.
(§2) Cells were trypsinized and washed once with 1×PBS after treatment. The cell pellet was re-suspended in 100 μl of 0.1M HCL. cAMP amount was measure by Direct Cyclic AMP Enzyme Immunoassay Kit (#900-066, Assay Designs, Inc., Ann Arbor, Mich.) according to the manufacturer's protocol. The acetylated version of the kit was used.

H3118 cells = assay: cAMP measurement, enzyme immunoassay; assay type: cell-based; conditions: compared to DMSO control
Source text: as §1, §2

In the case of `CCOc1ccc(/C=C2\NCCc3cc(OCC)c(OCC)cc32)cc1OCC` [Drotaverine], the adverse effects frequency [1] is given as 0.9% and the “effective in treating renal colic” value [2] is given as about 80%.

With `C=C[C@@]1(C)CC(=O)[C@]2(O)[C@@]3(C)[C@@H](O)CCC(C)(C)[C@@H]3[C@H](O)[C@H](OC(C)=O)[C@@]2(C)O1` [forskolin] the “effect on cAMP levels (in words)” value (HSY cells) was “no effect” and the “increase of cAMP levels” value (H3118 cells) was 4 fold.
